Experimental data taken from patent US20190367516A1 (Bayer Pharma Aktiengesellschaft, priority 2015, published 2019).
Read-outs that look alike come from different tables or passages of the source.

Experiments:
human M2 receptor [1] = target: T1, human M2 receptor (Homo sapiens, UniProt P08172); conditions: for Emax: read-out: Efficiency, boosting of the acetylcholine effect at EC20 acetylcholine concentration
T1 sequence (P08172 1-466): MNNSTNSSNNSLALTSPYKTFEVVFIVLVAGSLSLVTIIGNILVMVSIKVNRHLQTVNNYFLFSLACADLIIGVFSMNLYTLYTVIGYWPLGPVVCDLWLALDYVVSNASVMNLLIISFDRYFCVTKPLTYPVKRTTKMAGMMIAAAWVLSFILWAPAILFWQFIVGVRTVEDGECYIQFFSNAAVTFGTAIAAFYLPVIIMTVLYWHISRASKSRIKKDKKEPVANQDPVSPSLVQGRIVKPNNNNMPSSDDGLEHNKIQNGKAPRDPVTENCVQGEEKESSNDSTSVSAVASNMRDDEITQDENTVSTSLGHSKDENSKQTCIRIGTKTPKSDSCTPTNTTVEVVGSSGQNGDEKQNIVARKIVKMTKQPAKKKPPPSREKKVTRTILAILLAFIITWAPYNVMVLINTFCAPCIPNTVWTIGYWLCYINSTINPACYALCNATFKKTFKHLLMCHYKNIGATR

human M2 receptor [2] = target: T1, human M2 receptor; assay type: cell-based; conditions: α >1 = positive cooperativity
Experimental: B-1.2. Determination of Positive Cooperativity (α Factor)
In contrast to the EC50 determination of the test substances (see B-1.1), however, this is not done using one acetylcholine concentration; instead, every concentration of the test substance is combined with an acetylcholine 8-point dose-response curve. […] The shift in the acetylcholine dose-response curve in the presence of increasing concentrations of the test substance is analysed and quantified by means of GraphPad PRISM (Allosteric EC50 shift). […] Positive cooperativity is the hallmark of a positive allosteric modulator. […] The greater the magnitude of the α value, the greater the extent of cooperativity between orthosteric and allosteric.

[3] = Receptor activity EC50, allosteric potency at EC20 acetylcholine, M2-GIRK1/4 reporter cells, in some cases mean of two or more determinations
[4] = shift of acetylcholine dose-response curve (Allosteric EC50 shift)
[5] = Receptor activity EC50, M2-GIRK1/4 activation test, acetylcholine at EC20, allosteric potency, in some cases mean values from two or more determinations
[6] = shift in the acetylcholine dose-response curve (Allosteric EC50 shift, GraphPad PRISM)

Question: What does the source list for `CC[C@H](NC(=O)c1cn(-c2c(F)cc(F)cc2F)c2nc(N3CC(CO)(CO)C3)ccc2c1=O)C(F)(F)F` [Example 503, 7-[3,3-Bis(hydroxymethyl)azetidin-1-yl]-4-oxo-N-[(2S)-trifluorobutan-2-yl]-1-(2,4,6-trifluorophenyl)-1,4-dihydro-1,8-naphthyridine-3-carboxamide]?
Answer: EC50 (human M2 receptor [1]; [3]): 28 nM; Emax (human M2 receptor [1]; M2-GIRK1/4 reporter cells): 88.5%; Cooperativity (alpha factor) (human M2 receptor [2]; [4]): 24

Question: With `O=C(N[C@@H](C1CC1)C(F)(F)F)c1cn(-c2c(F)cc(F)cc2F)c2nc(N3CCCC[C@@H]3CO)ccc2c1=O` [Example 462, N-[(1 S)-1-Cyclopropyl-2,2,2-trifluoroethyl]-7-[(2R)-2-(hydroxymethyl)piperidin-1-yl]-4-oxo-1-(2,4,6-trifluorophenyl)-1,4-dihydro-1,8-naphthyridine-3-carboxamide] as the compound, how does the EC50 (human M2 receptor [1]; [3]) read?
Answer: 18 nM

Question: And the Emax (human M2 receptor [1]; M2-GIRK1/4 reporter cells)?
Answer: 88%

Question: What about the “Cooperativity (alpha factor)” value (human M2 receptor [2]; [4]) of the same compound?
Answer: 17

Question: Which results are given for `O=C(NC12CC3CC(CC(C3)C1)C2)c1cn(-c2ccc(F)cc2F)c2nc(N3CCC(O)(O)[C@H](F)C3)ccc2c1=O` [Example 7, 1-(2,4-Difluorophenyl)-7-[(3R)-3-fluoro-4,4-dihydroxypiperidin-1-yl]-4-oxo-N-(tricyclo[3.3.1.1^3,7]dec-1-yl)-1,4-dihydro-1,8-naphthyridine-3-carboxamide]?
Answer: EC50 (human M2 receptor [1]; [5]): 34 nM; Cooperativity (alpha factor) (human M2 receptor [2]; [6]): 34

Question: Which EC50 (human M2 receptor [1]; [5]) does the source give for `O=C(NC12CCC(F)(CC1)CC2)c1cn(-c2ccc(F)cc2F)c2nc(NCC(F)(F)F)ccc2c1=O` [Example 97, 1-(2,4-Difluorophenyl)-N-(4-fluorobicyclo[2.2.2]oct-1-yl)-4-oxo-7-[(2,2,2-trifluoroethyl)amino]-1,4-dihydro-1,8-naphthyridine-3-carboxamide] here?
Answer: 209 nM

Question: What about the “Cooperativity (alpha factor)” value (human M2 receptor [2]; [6]) of the same compound?
Answer: 9

Question: Which EC50 (human M2 receptor [1]; [5]) does the source give for `CCC(COC(F)(F)F)NC(=O)c1cn(-c2ccc(F)cc2F)c2nc(N3C[C@@H](O)CC3=O)ccc2c1=O` (stereo partly drawn) [Example 234, 1-(2,4-Difluorophenyl)-7-[(4S)-4-hydroxy-2-oxopyrrolidin-1-yl]-4-oxo-N-[1-(trifluoromethoxy)butan-2-yl]-1,4-dihydro-1,8-naphthyridine-3-carboxamide] here?
Answer: 75 nM

Question: What about the “Cooperativity (alpha factor)” value (human M2 receptor [2]; [6]) of the same compound?
Answer: 28

Question: For `CC[C@@H](NC(=O)c1cn(-c2ccc(F)cc2F)c2nc(NCC(F)F)ccc2c1=O)C(F)(F)F` [Example 123, 7-[(2,2-Difluoroethyl)amino]-1-(2,4-difluorophenyl)-4-oxo-N-[(2R)-1,1,1-trifluorobutan-2-yl]-1,4-dihydro-1,8-naphthyridine-3-carboxamide], which EC50 (human M2 receptor [1]; [5]) is on record?
Answer: 115 nM

Question: What about the “Cooperativity (alpha factor)” value (human M2 receptor [2]; [6]) of the same compound?
Answer: 14

Question: Which EC50 (human M2 receptor [1]; [5]) does the source give for `O=C(NC12CC3CC(CC(C3)C1)C2)c1cn(-c2ccc(F)cc2F)c2nc(N3CC[C@@H](F)[C@H](O)C3)ccc2c1=O` [Example 3, 1-(2,4-Difluorophenyl)-7-[(3R,4R)-4-fluoro-3-hydroxypiperidin-1-yl]-4-oxo-N-(tricyclo[3.3.1.1^3,7]dec-1-yl)-1,4-dihydro-1,8-naphthyridine-3-carboxamide] here?
Answer: 17 nM

Question: What about the “Cooperativity (alpha factor)” value (human M2 receptor [2]; [6]) of the same compound?
Answer: 30

Question: Which results are given for `CC(COC(F)(F)F)NC(=O)c1cn(-c2ccc(F)cc2F)c2nc(N3CC[C@H](F)C3)ccc2c1=O` (mixture of isomers) [Example 227, 1-(2,4-Difluorophenyl)-7-[(3S)-3-fluoropyrrolidin-1-yl]-4-oxo-N-[1-(trifluoromethoxy)propan-2-yl]-1,4-dihydro-1,8-naphthyridine-3-carboxamide]?
Answer: EC50 (human M2 receptor [1]; [5]): 73 nM; Cooperativity (alpha factor) (human M2 receptor [2]; [6]): 14

Question: How did the EC50 (human M2 receptor [1]; [5]) turn out when `CC[C@H](NC(=O)c1cn(-c2c(F)cc(F)cc2Cl)c2nc(N3CCNC3=O)ccc2c1=O)C(F)(F)F` [Example 340, 1-(2-Chloro-4,6-difluorophenyl)-4-oxo-7-(2-oxoimidazolidin-1-yl)-N-[(2S)-1,1,1-trifluorobutan-2-yl]-1,4-dihydro-1,8-naphthyridine-3-carboxamide] was run?
Answer: 10 nM

Question: What about the “Cooperativity (alpha factor)” value (human M2 receptor [2]; [6]) of the same compound?
Answer: 22

Question: How did the EC50 (human M2 receptor [1]; [5]) turn out when `CC[C@@H](NC(=O)c1cn(-c2ccc(F)cc2F)c2nc(N3CCCC3)ccc2c1=O)C(F)(F)F` [Example 192, 1-(2,4-Difluorophenyl)-4-oxo-7-(pyrrolidin-1-yl)-N-[(2R)-1,1,1-trifluorobutan-2-yl]-1,4-dihydro-1,8-naphthyridine-3-carboxamide] was run?
Answer: 54 nM

Question: And the “Cooperativity (alpha factor)” value (human M2 receptor [2]; [6])?
Answer: 9

Question: For `CC[C@@H](NC(=O)c1cn(-c2ccc(F)cc2F)c2nc(N3CCC(C)(OC)C3)ccc2c1=O)C(F)(F)F` (mixture of isomers) [Example 191, 1-(2,4-Difluorophenyl)-7-[3-methoxy-3-methylpyrrolidin-1-yl]-4-oxo-N-[(2R)-1,1,1-trifluorobutan-2-yl]-1,4-dihydro-1,8-naphthyridine-3-carboxamide], which EC50 (human M2 receptor [1]; [5]) is on record?
Answer: 60 nM

Question: And the “Cooperativity (alpha factor)” value (human M2 receptor [2]; [6])?
Answer: 7

Question: How did the EC50 (human M2 receptor [1]; [5]) turn out when `O=C(Nc1c(Cl)cccc1Cl)c1cn(-c2ccc(F)cc2F)c2nc(N3CC[C@H](O)C3=O)ccc2c1=O` [Example 202, N-(2,6-Dichlorophenyl)-1-(2,4-difluorophenyl)-7-[(3S)-3-hydroxy-2-oxopyrrolidin-1-yl]-4-oxo-1,4-dihydro-1,8-naphthyridine-3-carboxamide] was run?
Answer: 89 nM

Question: And the “Cooperativity (alpha factor)” value (human M2 receptor [2]; [6])?
Answer: 18

Question: What does the source list for `O=C(NC(c1c(F)cccc1F)C(F)(F)F)c1cn(-c2ccc(F)cc2F)c2nc(N3C[C@@H](O)CC3=O)ccc2c1=O` (single isomer, unassigned) [Example 245]?
Answer: EC50 (human M2 receptor [1]; [5]): 112 nM; Cooperativity (alpha factor) (human M2 receptor [2]; [6]): 42

Question: For `C[C@H](NC(=O)c1cn(-c2c(F)cccc2F)c2nc(N3CC4CC4(O)C3)ccc2c1=O)C(F)(F)F` (mixture of isomers) [Example 311, 1-(2,6-Difluorophenyl)-7-[1-hydroxy-3-azabicyclo[3.1.0]hex-3-yl]-4-oxo-N-[(2S)-1,1,1-trifluoropropan-2-yl]-1,4-dihydro-1,8-naphthyridine-3-carboxamide], which EC50 (human M2 receptor [1]; [5]) is on record?
Answer: 25 nM

Question: And the “Cooperativity (alpha factor)” value (human M2 receptor [2]; [6])?
Answer: 20

Question: What does the source list for `O=C(NC(C(F)(F)F)C(F)(F)F)c1cn(-c2ccc(F)cc2F)c2nc(N3CC[C@H](F)C3)ccc2c1=O` [Example 70, 1-(2,4-Difluorophenyl)-7-[(3S)-3-fluoropyrrolidin-1-yl]-N-(1,1,1,3,3,3-hexafluoropropan-2-yl)-4-oxo-1,4-dihydro-1,8-naphthyridine-3-carboxamide]?
Answer: EC50 (human M2 receptor [1]; [5]): 76 nM; Cooperativity (alpha factor) (human M2 receptor [2]; [6]): 29

Question: Which EC50 (human M2 receptor [1]; [3]) does the source give for `CC[C@H](NC(=O)c1cn(-c2c(F)cc(F)cc2Cl)c2nc(N3CCC(C)C3=O)ccc2c1=O)C(F)(F)F` (single isomer, unassigned) [Example 425] here?
Answer: 5 nM

Question: What about the Efficiency (human M2 receptor [1]; boosting of the acetylcholine effect at EC20 acetylcholine concentration, M2-GIRK1/4 reporter cells) of the same compound?
Answer: 90.5%

Question: What about the “Cooperativity (alpha factor)” value (human M2 receptor [2]; [4]) of the same compound?
Answer: 9

Question: What does the source list for `CC12CCC(NC(=O)c3cn(-c4ccc(F)cc4F)c4nc(N5CC(O)CC5=O)ccc4c3=O)(CC1)CC2` (centres unmarked) [Example 181]?
Answer: EC50 (human M2 receptor [1]; [5]): 59 nM; Cooperativity (alpha factor) (human M2 receptor [2]; [6]): 36

Question: What does the source list for `CC(C)C[C@H](NC(=O)c1cn(-c2c(F)cc(F)cc2F)c2nc(N3C[C@@H](O)[C@@H](O)C3)ccc2c1=O)C(F)(F)F` [Example 573, 7-[(3R,4S)-3,4-Dihydroxypyrrolidin-1-yl]-4-oxo-N-[(2S)-1,1,1-trifluoro-4-methylpentan-2-yl]-1-(2,4,6-trifluorophenyl)-1,4-dihydro-1,8-naphthyridine-3-carboxamide]?
Answer: EC50 (human M2 receptor [1]; [3]): 12 nM; Emax (human M2 receptor [1]; M2-GIRK1/4 reporter cells): 100%; Cooperativity (alpha factor) (human M2 receptor [2]; [4]): 57

Question: Which EC50 (human M2 receptor [1]; [5]) does the source give for `CC[C@H](NC(=O)c1cn(-c2ccc(F)cc2F)c2nc(N3C[C@@H](C(=O)OC)OC3=O)ccc2c1=O)C(F)(F)F` [Example 258, Methyl (5S)-3-[8-(2,4-difluorophenyl)-5-oxo-6-{[(2S)-1,1,1-trifluorobutan-2-yl]carbamoyl}-5,8-dihydro-1,8-naphthyridin-2-yl]-2-oxo-1,3-oxazolidine-5-carboxylate] here?
Answer: 147 nM

Question: What about the “Cooperativity (alpha factor)” value (human M2 receptor [2]; [6]) of the same compound?
Answer: 30

Question: With `CC(COC(F)(F)F)NC(=O)c1cn(-c2ccc(F)cc2F)c2nc(N3CCCC3)ccc2c1=O` (racemic) [Example 232, 1-(2,4-Difluorophenyl)-4-oxo-7-(pyrrolidin-1-yl)-N-[1-(trifluoromethoxy)propan-2-yl]-1,4-dihydro-1,8-naphthyridine-3-carboxamide] as the compound, how does the EC50 (human M2 receptor [1]; [5]) read?
Answer: 97 nM

Question: What about the “Cooperativity (alpha factor)” value (human M2 receptor [2]; [6]) of the same compound?
Answer: 8

Question: How did the EC50 (human M2 receptor [1]; [3]) turn out when `CC[C@H](NC(=O)c1cn(-c2c(F)cc(F)cc2F)c2nc(N3C[C@@H](C)NC3=O)ccc2c1=O)C(F)(F)F` [Example 456, 7-[(4R)-4-Methyl-2-oxoimidazolidin-1-yl]-4-oxo-N-[(2S)-1,1,1-trifluorobutan-2-yl]-1-(2,4,6-trifluorophenyl)-1,4-dihydro-1,8-naphthyridine-3-carboxamide] was run?
Answer: 9 nM

Question: And the Emax (human M2 receptor [1]; M2-GIRK1/4 reporter cells)?
Answer: 92%

Question: And the “Cooperativity (alpha factor)” value (human M2 receptor [2]; [4])?
Answer: 32
